Test [1] has as its system Streptococcus pyogenes C203. Nature of the test: standard agar-dilution assay, MIC. Type of test: cell-based. As for the experimental part: (§1) The MIC's in Table III were determined by standard agar-dilutionassays. The MIC's in Table IV were obtained using a conventional broth-dilution microtiter test.
Test [2] concerns Streptococcus pneumoniae Park I. Nature of the test: standard agar-dilution assay, MIC. Type of test: cell-based. The method, then:
as §1

Test [3] concerns Staphylococcus aureus X1.1. Nature of the test: standard agar-dilution assay, MIC. In kind it is cell-based. The method, then:
as §1

For test [4], the system named is Staphylococcus epidermidis EPI1. As to the kind of experiment: standard agar-dilution assay, MIC. In kind it is cell-based. As for the experimental part:
as §1

The subject of test [5] is Staphylococcus aureus S13E. As to the kind of experiment: standard agar-dilution assay, MIC. Type of test: cell-based. The method, then: as §1
Test [6] has as its system Streptococcus Group 9960. As to the kind of experiment: standard agar-dilution assay, MIC. In kind it is cell-based. The method, then:
as §1

Test [7] deals with Streptococcus Group D X66. As to the kind of experiment: standard agar-dilution assay, MIC. Type of test: cell-based. As for the experimental part: as §1
In test [8] the test system is Staphylococcus epidermidis EPI2. Nature of the test: standard agar-dilution assay, MIC. In kind it is cell-based. The method, then: as §1
The test system of test [9] is Haemophilus influenzae Holt. Nature of the test: standard agar-dilution assay, MIC. Type of test: cell-based. To be noted: ampicillin sensitive strain. The method, then:
as §1
^d Ampicillinsensitive strain

Test [10] deals with Streptococcus pyogenes C203. As to the kind of experiment: experimental bacterial infection in mice, ED50. In kind it is in vivo. Conditions: doses given 1 and 5 hours postinfection, read-out: ED50 (effective dose to protect 50% of the test animals). The method, then: The ester derivatives of this invention have shown in vivo antimicrobial activity against experimental bacterial infections caused by gram-positivebacteria. When two doses of test compound were administered to mice with experimental infections, the activity observed was measured as an ED50 value [effective dose in mg/kg to protect 50% of the test animals: see Warren Wick, et al., J. Bacteriol. 81, 233-235 (1961)].
^a mg/kg × 2; doses given 1 and 5 hours postinfection

Test [11] deals with Staphylococcus aureus X400. As to the kind of experiment: standard agar-dilution assay, MIC. In kind it is cell-based. To be noted: Staphylococcus aureus X400, methicillin resistant strain. The method, then:
as §1
^c Methicillinresistant-strain

Test [12] concerns Haemophilus influenzae R252. As to the kind of experiment: standard agar-dilution assay, MIC. Type of test: cell-based. Conditions: Haemophilus influenzae R252, ampicillin resistant strain. As for the experimental part: as §1
^e Ampicillinresistant strain

In test [13] the test system is Staphylococcus aureus. Nature of the test: conventional broth-dilution microtiter test, MIC. Type of test: cell-based. As for the experimental part: as §1
The test system of test [14] is Pasteurella multocida 17E. Nature of the test: conventional broth-dilution microtiter test, MIC. In kind it is cell-based. Conditions: bovine isolate. As for the experimental part:
as §1

Test [15] concerns Mycoplasma hyorhinis. As to the kind of experiment: conventional broth-dilution microtiter test, MIC. In kind it is cell-based. As for the experimental part:
as §1

The test system of test [16] is Pasteurella multocida 60A. As to the kind of experiment: conventional broth-dilution microtiter test, MIC. Conditions: avian isolate. In kind it is cell-based. As for the experimental part: as §1
The test system of test [17] is Mycoplasma synoviae. Nature of the test: conventional broth-dilution microtiter test, MIC. In kind it is cell-based. The method, then:
as §1

Test [18] deals with Streptococcus sp. 80. Nature of the test: conventional broth-dilution microtiter test, MIC. In kind it is cell-based. As for the experimental part:
as §1

The test system of test [19] is Mycoplasma gallisepticum. Nature of the test: conventional broth-dilution microtiter test, MIC. Type of test: cell-based. As for the experimental part: as §1
The test system of test [20] is Staphylococcus aureus V41. Nature of the test: standard agar-dilution assay, MIC. In kind it is cell-based. To be noted: Staphylococcus aureus V41, penicillin resistant strain. As for the experimental part: as §1
^b Penicillinresistant strain

The structures appear in SMILES notation. Read-outs that look alike come from different tables or passages of the source. Some results are limits rather than exact numbers.

For orientation: ED50 means the midpoint of the dose-response relation.

In the case of `CCC1OC(=O)CC(O)C(C)C(OC2OC(C)C(OC3CC(C)(O)C(OC(C)=O)C(C)O3)C(N(C)C)C2OC(C)=O)C(CC=O)CC(C)C(=O)C=CC(C)=CC1COC(C)=O` (stereo not shown) [Compound 1, 2',4",23-Tri-O-Acetyl-DMT], the “MIC (minimal inhibitory concentration)” value is 0.5 in [1]; 0.125 in test [2]; 1 in [3]; 1 in [4]; 1 in [5]; 1 in [6]. The “MIC (minimal inhibitory concentration)” value is 1 in test [7]; 2 in test [8]; 16 in test [9]; 2 in test [11]; 16 in [12]; 3.12 in test [13]. In addition, the “MIC (minimal inhibitory concentration)” value is 12.5 in [14]; 1.56 in [15]; 25 in test [16]; 0.78 in test [17]; 0.78 in [18]; 0.39 in test [19]. In addition, the “MIC (minimal inhibitory concentration)” value in test [20] was 0.5. For the same compound, the 50% effective dose (ED50) in test [10] (C203, mice, oral) came out at 179 mg/kg.

Take `CCC1OC(=O)CC(O)C(C)C(OC2OC(C)C(OC3CC(C)(O)C(OC(C)=O)C(C)O3)C(N(C)C)C2O)C(CC=O)CC(C)C(=O)C=CC(C)=CC1COC(C)=O` (stereo not shown) [Compound 2, 23,4"-Di-O-Acetyl-DMT]: the “MIC (minimal inhibitory concentration)” value in [1] amounted to 0.25; in test [2] it was 0.125; in test [3], 0.5; in test [4], 1; in [5], 0.5; in test [6], 0.5. The “MIC (minimal inhibitory concentration)” value stood at 0.5 in [7]; 1 in test [8]; 16 in [9]; 1 in test [11]; 16 in test [12]; 0.78 in test [13]. In addition, the “MIC (minimal inhibitory concentration)” value in test [14] is recorded as 6.25; in test [15] it was 0.78; in test [16], 12.5; in test [17], 0.39; in [18] it was 0.39; in test [19], 0.097. Further, the “MIC (minimal inhibitory concentration)” value in [20] is given as 0.25. Further, the ED50 in test [10] (C203, mice, oral) was found to be 117 mg/kg.

`CCC(=O)OC1C(C)OC(OC2C(C)OC(OC3C(CC=O)CC(C)C(=O)C=CC(C)=CC(C)C(CC)OC(=O)CC(O)C3C)C(O)C2N(C)C)CC1(C)O` (stereo not shown) [Compound 24, 4"-O-Propionyl-DMOT]: the “MIC (minimal inhibitory concentration)” value in [1] worked out at 0.5; in test [2], 0.125; in [3] it was 0.5; in [4], 0.5; in test [5], 0.5; in test [6] it was 0.5. The “MIC (minimal inhibitory concentration)” value in test [7] is 1; in [8], 1; in test [9], 8; in test [11], 0.5; in [12] it was 8; in test [13], 0.78. For the same compound, the “MIC (minimal inhibitory concentration)” value in test [14] stood at 6.25; in test [15] it was 3.12; in [16], 12.5; in test [17], 0.78; in [18] it was 0.39; in [19], 0.097. The “MIC (minimal inhibitory concentration)” value in [20] came out at 1. Also, the ED50 in [10] (C203, mice, oral) was 71 mg/kg; in test [10] (C203, sc, mice, subcutaneous), 22 mg/kg.

For `CCC(=O)OC1CC(=O)OC(CC)C(C)C=C(C)C=CC(=O)C(C)CC(CC=O)C(OC2OC(C)C(OC3CC(C)(O)C(OC(=O)CC)C(C)O3)C(N(C)C)C2O)C1C` (stereo not shown) [Compound 25, 3,4"-Di-O-propionyl-DMOT], the “MIC (minimal inhibitory concentration)” value in test [1] is on record as 0.5; in [2] it was 0.25; in test [3], 0.5; in test [4], 1; in [5], 0.5; in test [6], 1. For the same compound, the “MIC (minimal inhibitory concentration)” value in test [7] is on record as 1; in test [8], 2; in test [9] it was 32; in test [11] it was 1; in [12], 16; in test [13], 1.56. In addition, the “MIC (minimal inhibitory concentration)” value came to 25 in test [14]; 1.56 in test [15]; 50 in test [16]; 0.39 in test [17]; 1.56 in [18]; 0.195 in test [19]. In addition, the “MIC (minimal inhibitory concentration)” value in [20] is listed as 1. Further, the 50% effective dose (ED50) is 36 mg/kg in test [10] (C203, mice, oral) and over 30 mg/kg in test [10] (C203, sc, mice, subcutaneous).

These data come from patent US4436733A, “4"- And 3-ester derivatives of DMT and DMOT” (Eli Lilly and Company, priority 1982, dated 1984).
